Data on 5 substances can be found in patent US5019384A, “Immunonodulating compositions and their use” (Massachusetts Institute of Technology, priority 1989, dated 1991).

Entries after “also recorded” stand apart in the source; their conditions may differ. Like-named read-outs stand apart in the source and are kept apart here.

The target of one assay is T1, I-A^k (Mus musculus, UniProt P01910+P06343).
T1 construct: endogenous in cells
Briefly: Gel filtration binding of 125I-labeled peptide to purified Ia (I-A^k). As to conditions: I-A^k; 125I-labeled peptide, 48 hours at room temperature, no inhibitor. An excerpt:
(§1) The peptide P12-26 was modified by the addition of a tyrosine residue to the N-terminus to serve as an acceptor for the ^125 I.
(§2) Ia-molecules were purifed from Nonidet P-40 (NP-40) lysates of A20 (H2^d) or AKTB-1b (H2^k) cells by affinity chromatography using the following monoclonal antibodies: MK-D6 (I-A^d -specific), 10-3-6 (I-A^k -specific) specific) or 14-4-4 (I-E^d/k -specific) coupled to Sepharose 4B beads (Pharmacia Fine Chemicals, Sweden).
(§3) A gel filtration assay was used for determining the degree of association between immunogenic peptides and Ia. The assay is described in: Buus, S. et al., Proceeding of the National Academy of Sciences, U.S.A. (1986) 83:3968, the teaching of which is incorporated herein by reference. Briefly, 40 μmole of purified Ia in 1 percent NP-40/PBS was mixed with 0.2 μmole of ^125 I-labeled peptide (approximately 200,000 cpm for each experiment) and incubated for 48 hours at room temperature to allow for formation of the Ia-peptide complex. The Ia-peptide complexes were separated from free peptide by gel filtration and the percentage of peptide bound to Ia was calculated as the ratio of the ^125 I-labeled peptide in the void volume to the total ^125 I-labeled peptide recovered.
A general note: SEC sorts molecules by how far they enter the pores of the column.

The subject of a further assay is T-cell hybridoma 7B7.3. Briefly: Activation of T-cell hybridoma 7B7.3 measured by IL-2 secretion. In kind it is cell-based, Balb/c mouse. As to conditions: for Inhibition of P15-26-dependent 7B7.3 activation: P15-26 as activator, I-A^d context, IL-2 release; for Stimulation of 7B7.3: in the context of I-A^d. The method, then: (§4) T-cell hybridomas were obtained as described in Guillet et al., Science (1985) 235:865-870: and Lechler et al., J. Exp. Med. (1986) 163:678-696 (particularly references cited therein). The procedure for determining inhibition or activation is described in Guillet et al., supra.
(§5) The activation of T-cell hybridomas was measured by their ability to secrete IL-2 (T-cell hybridomas (5×10^4) that were incubated with 5×10^4 antigen-presenting cells in wells of a 96-well tissue Costar plate (no. 3596) in 200 μl RPMI complete medium containing the appropriate antigen concentrations). After 24 hrs of culture, supernatant (50 μl) was removed and then assayed for IL-2 content by its ability to maintain the growth of the IL-2 Dependent CTL-L cells: 1 μCi of ^3 H tritiated thymidine was added per well. Six hours later the cells were harvested by an automatic cell harvester (Skartron Inc., Sterling, Va.) and thymidine incorporation measured by scintillation counting.
The activity of T-cell hybridoma 7B7.3 was measured in the presence of various concentrations of P15-26, either in RPMI 1640 with 10 percent fetal calf serum alone or in the presence of P12-24 20 μM or P12-24 60 μM. A20 B-cell lymphomas (5×10^4 cells/well) were used as antigen presenting cells. After 24 hrs of culture, supernatant (50 μl) was harvested and then assayed for IL-2 concentration by following incorporation of ^3 H thymidine into the IL-2 dependent CTL-L cell line (10^4 cells/well). The indicated values in FIG. 2 represent the arithmetic mean of triplicate samples.
The following work was carried out to examine the competitive ability of peptides derived from Staphylococcus nuclease (Nase), residues 61-80 (P61-80) and from ovalbumin (Ova), residues 324-336 (P324-336) to inhibit P15-26-dependent activation of the hybridoma 7B7.3. Each of these peptides has been shown in their respective cases to be I-A^d -restricted and to be immunodominant for their respective antigens. Finnegan, A. et al. Journal of Experimental Medicine (1986) 164:897-910: Shimonkevitz, R. et al., Journal of Immunology (1984). 5×10^4 TA3 cells were added to each well. Various concentrations of P15-26 were added with either medium (RPMI 1640 with 10 percent fetal calf serum) alone or 30 μM or Ova (P324-36) of 60 μM of Nase ([…]). A20 B-cell lymphoma (5×10^4 cells/well) was used as antigen presenting cells. 7B7.3 T-cell hybridomas (5×10^4) were then added and cultured for 24 hrs. The level of T-cell stimulation was assayed by determining the IL-2 concentration as indicated in Example II. […] The degree of inhibition is […] upon the ratio of activator to inhibitor in each case.

A further assay has as its system T-cell hybridoma 8I. Briefly: Activation of T-cell hybridoma 8I measured by IL-2 secretion. The settings on record: for Stimulation of 8I: in the context of I-E^k. Type of assay: cell-based, A/J strain. The method, then:
as §4, §5
8I (I-E^k -restricted) T-cell hybridomas and TA3 B presenting cells (5×10^4) were cocultured with various concentration of P15-26 and either medium alone or 60 μM of Ova (P324-336) or 60 μM Nase (P61-80) as described above. […] In addition, no other peptides representative of the remainder of the Nase sequence were able to inhibit 7B7.3 activation.

In assay [1] the test system is T-cell hybridoma DO-11.10. In kind it is cell-based.
The target in the next assay is T2, I-A^d (Mus musculus, UniProt P01921+P04228).
T2 construct: endogenous in cells
T2 sequence (P04228 24-256): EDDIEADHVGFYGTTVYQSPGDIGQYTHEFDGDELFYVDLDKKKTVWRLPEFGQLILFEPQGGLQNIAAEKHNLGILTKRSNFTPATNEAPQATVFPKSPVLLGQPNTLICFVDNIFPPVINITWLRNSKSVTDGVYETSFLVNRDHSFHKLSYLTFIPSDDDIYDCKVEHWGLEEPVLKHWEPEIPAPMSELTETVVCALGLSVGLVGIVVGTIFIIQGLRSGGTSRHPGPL
T2 sequence (P01921 28-265): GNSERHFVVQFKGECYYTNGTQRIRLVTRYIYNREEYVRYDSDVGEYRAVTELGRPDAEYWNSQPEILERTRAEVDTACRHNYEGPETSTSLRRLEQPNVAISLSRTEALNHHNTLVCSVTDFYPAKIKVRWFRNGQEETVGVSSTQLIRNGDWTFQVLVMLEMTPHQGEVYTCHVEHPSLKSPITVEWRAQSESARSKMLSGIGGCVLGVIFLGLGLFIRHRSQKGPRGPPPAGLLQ
In words: Gel filtration binding of 125I-labeled peptide to purified Ia (I-A^d). As to conditions: I-A^d; 125I-labeled peptide, 48 hours at room temperature, no inhibitor.
From the text: as §1, §2, §3

T1 sequence (P01910 24-256): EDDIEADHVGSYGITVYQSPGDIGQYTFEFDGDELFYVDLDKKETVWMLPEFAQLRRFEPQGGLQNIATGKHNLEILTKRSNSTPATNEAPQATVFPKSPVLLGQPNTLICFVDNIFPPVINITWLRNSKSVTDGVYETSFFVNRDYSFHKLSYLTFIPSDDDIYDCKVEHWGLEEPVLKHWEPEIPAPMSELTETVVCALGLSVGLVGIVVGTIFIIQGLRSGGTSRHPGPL
T1 sequence (P06343 28-263): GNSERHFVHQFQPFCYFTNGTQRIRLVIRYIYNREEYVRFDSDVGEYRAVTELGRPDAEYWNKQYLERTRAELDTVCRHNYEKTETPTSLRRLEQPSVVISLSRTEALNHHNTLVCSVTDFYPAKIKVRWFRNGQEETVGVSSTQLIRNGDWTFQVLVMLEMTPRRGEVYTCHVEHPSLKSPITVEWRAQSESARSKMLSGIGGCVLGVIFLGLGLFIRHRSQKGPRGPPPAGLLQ

On to “Lysozyme (Hen) (P46-61): lysozyme-derived peptide restricted by I-A^k [reference compound]”, for which the “Percent of Peptide Bound” value with I-A^k was found to be 21.5%.
As for “Ova (P324-336): peptide from ovalbumin (Ova), residues 324-336, truncated analog of P323-339 (ISQAVHAAHAEIN; UniProt P01012 324-336, looked up, fragment) [reference compound]”, the “Inhibition of P15-26-dependent 7B7.3 activation” value in the assay with T-cell hybridoma 7B7.3 was “inhibit 7B7.3 activation in a dose-dependent manner”. In addition, the “Effect on 8I activation” value in the assay with T-cell hybridoma 8I (TA3 presenting cells, P15-26 stimulator, competitor peptide 60 μM) is reported as “without effect”. The “Stimulation of DO-11.10” value in assay [1] was “responds less well”.
With “P12-24: homologous peptide which contains residues 12-24 of cI”, in the assay on T-cell hybridoma 7B7.3, the “Inhibition of P15-26-dependent 7B7.3 activation” value was “inhibited activation by P15-26 in a dose-dependent manner; also recorded: inhibition of P15-26-dependent7B7.3 activation was observed; also recorded: inhibit activation by P15-26 in a dose dependent manner” and the “Stimulation of 7B7.3” value was “Neither 7B7.3 nor 8I can be stimulated; also recorded: Neither T-cell can be stimulated”. Also, in the assay on T-cell hybridoma 8I (I-E^k-restricted hybridoma, P12-24 as competitor), the “Effect on 8I activation (IL-2 response)” value was “no statistically significant effect; also recorded: had no effect”. Further, the “Stimulation of 8I” value with T-cell hybridoma 8I is recorded as “Neither 7B7.3 nor 8I can be stimulated; also recorded: Neither T-cell can be stimulated”.
Take “P15-26: peptide which contains amino acid residues 15-26 of cI”: the EC50 is 29.8 ± 2.8 µM in the assay with T-cell hybridoma 7B7.3 (7B7.3 co-cultured with P15-26 and P12-24 at 20 μM, read-out: 50 percent stimulation point of the P15-26 antigen dose response curve); 70.3 µM in the assay on T-cell hybridoma 7B7.3 (7B7.3 co-cultured with P15-26 and P12-24 at 60 μM, read-out: 50 percent stimulation point of the P15-26 antigen dose response curve); 20.7 ± 1.2 µM with T-cell hybridoma 7B7.3 (P15-26 cultured with 7B7.3 alone, A20 antigen presenting cells, 24 hrs, IL-2, read-out: 50% stimulation point of the P15-26 antigen dose response curve). The “Stimulation of 7B7.3” value in the assay on T-cell hybridoma 7B7.3 is recorded as “is stimulated; also recorded: can be stimulated”. For the same substance, the “Stimulation of 8I” value in the assay with T-cell hybridoma 8I is “recognizes the same peptide”.
As to “P323-339: peptide P323-339 derived from ovalbumin (KISQAVHAAHAEINEAG; UniProt P01012 323-339, looked up, fragment) [reference compound]”, the “Stimulation of DO-11.10” value in assay [1] was “responds to”. Further, the “Percent of Peptide Bound” value with I-A^d is 10.6%.
